For series [1] the following is noted: daily standard dose of 20 mg; cited from earlier work.
The next series deals with ERAP2. The experiment in a line: ERAP2 expression in PBMC of RRMS patients over the course of GA treatment (exon arrays, PCR). It is filed as in vivo, human. As to conditions: baseline, 3, 12 and 24 months of treatment (FIG. 4). As for the experimental part:
Relapsing-remitting multiple sclerosis patients were treated with GA. Whole blood was taken from patients at four time points including baseline (baseline, month 3, month 12 and month 24). Peripheral blood mononuclear cells (PBMCs) were cryopreserved and RNA was isolated for gene expression analysis (FIG. 3).
Gene expression analysis was performed using Affymetrix Human Exon 1.0 ST expression arrays. Preprocessing was performed with an integrated three-step approach: background correction, normalization […] implemented in the Affymetrix Expression Console. Batch effects normalization was performed with the removeBatchEffect function from limma R package.
PCR analysis was performed in order to validate the expression of ERAP2 in Responder populations as compared to Non-Responders and Healthy Controls.

Series [2] concerns RRMS subjects. As to conditions: over 9 months of treatment, 20 mg group (17 lesions under placebo); cited from earlier work.
For series [3], the system named is RRMS subjects. As to conditions: largest controlled study, cited from earlier work.

With Glatiramer acetate [GA], the tolerability entry in series [1] is on record as “generally well tolerated”. The “ERAP2 expression change by treatment” value in the series on ERAP2 is recorded as “not modified”. For the same substance, the “median cumulative number of Gd-enhancing lesions” value in the series on RRMS subjects [2] was 11 lesions. For the same substance, the relapse rate reduced in the series with RRMS subjects [3] (GA 20 mg vs placebo) was 32%. The relapse rate in the series on RRMS subjects [3] (under GA 20 mg (1.98 under placebo)) is recorded as 1.34.

Values taken from patent US9617596B2, “Biomarkers predictive for clinical response for glatiramer acetate” (TEVA PHARMACEUTICAL INDUSTRIES, LTD., priority 2012, dated 2017).
